Test results from patent US7166762B2, “Method of constructing heart failure model animal” (Takeda Pharmaceutical Company Limited, priority 2000, dated 2007).

Test system: β-receptor
Experiment: Reactivity for dobutamine (β-receptor response, LVdp/dtmax) in anesthetized rats 1 week after the operation
Format: in vivo, rat
Conditions: i.v.; for reactivity of the β-receptor: difference in LVdp/dtmax between before and after administration (Δ): male JCL-Wistar rat, mean ± standard error
Experimental: A male JCL-Wistar rat (13 to 15 week-old) was anesthetized with pentobarbital (50 mg/kg, i.p.) and subjected to thoracotomy at the midline under artificial respiration. The pericardium was dissected to expose the heart, and the proximal portion of the ascending aorta was dissected. A thread was put through the proximal portion of the left coronary artery along with the cardiac muscle, with a needled suture, and the thread was ligated to occlude the coronary artery. Immediately after the occlusion of the coronary artery (within 5 minutes), a polyethylene tube having a length of 3 mm (outer diameter: 2.80 mm; inner diameter: 1.77 mm) was installed on the proximal portion of the ascending aorta to conduct stenosis of 40 to 50%. After that, close-chest operation was conducted, and the rat was returned to a breeding cage after spontaneous respiration had been confirmed, and bred for 1 week by a general procedure. The rats in which the recovery of spontaneous respiration had not been confirmed were excluded from the following analysis. After 1 week of the operation, to measure the hemodynamics, the rat was anesthetized with pentobarbital (40 mg/kg, i.p.). A tracheal cannula was inserted, then a mirror catheter having a pressure sensor (2F) was inserted from the right carotid artery to the left ventricle. The waveform of the left ventricular pressure was analyzed with a differential amplifier, and the maximum differential value (LVdp/dtmax) and the minimum differential value (LVdp/dtmin) were recorded.
On the other hand, in order to measure the blood pressure and to administrate a drug, a polyethylene tube was inserted to the left femoral artery and left femoral vein, respectively, and the heart rate carculated from the blood pressure pulse and the dipolar lead (II) electrocardiogram were recorded.
Dobutamime was dissolved in a solution of saline containing 0.01% of ascorbic acid, and the solution was administrated in a dose of 0.3 to 10 μg/kg i.v. to investigate the β-receptor response.
The basal hemodynamics after 1 week of the operation was represented by the value before the administration of dobutamime, and the reactivity of the β-receptor was represented by the difference between before and after the administration of dobutamime (Δ mmHg/sec) by the mean value±standard error.

CC(CCc1ccc(O)cc1)NCCc1ccc(O)c(O)c1 (stereo not drawn) [Dobutamine]
reactivity of the β-receptor: difference in LVdp/dtmax between before and after administration (Δ) (0.3 μg/kg, group with coronary stenosis and stenosis of the proximal portion of the aorta): 278 ± 144 mmHg/sec | reactivity of the β-receptor: difference in LVdp/dtmax between before and after administration (Δ) (0.3 μg/kg, sham-operated group): 2287 ± 8 mmHg/sec | reactivity of the β-receptor: difference in LVdp/dtmax between before and after administration (Δ) (1.0 μg/kg, group with coronary stenosis and stenosis of the proximal portion of the aorta): 832 ± 501 mmHg/sec | reactivity of the β-receptor: difference in LVdp/dtmax between before and after administration (Δ) (1.0 μg/kg, sham-operated group): 4127 ± 112 mmHg/sec | reactivity of the β-receptor: difference in LVdp/dtmax between before and after administration (Δ) (3.0 μg/kg, group with coronary stenosis and stenosis of the proximal portion of the aorta): 1641 ± 794 mmHg/sec | reactivity of the β-receptor: difference in LVdp/dtmax between before and after administration (Δ) (3.0 μg/kg, sham-operated group): 7135 ± 753 mmHg/sec | reactivity of the β-receptor: difference in LVdp/dtmax between before and after administration (Δ) (10 μg/kg, group with coronary stenosis and stenosis of the proximal portion of the aorta): 2431 ± 1028 mmHg/sec | reactivity of the β-receptor: difference in LVdp/dtmax between before and after administration (Δ) (10 μg/kg, sham-operated group): 7654 ± 999 mmHg/sec | maximum reaction of LVdp/dtmax in the stenosis group as compared with the sham-operated group (all doses 0.3, 1.0, 3.0, 10 μg/kg, coronary + proximal aorta stenosis group vs sham-operated group): remarkably decreased
